Structures can show the parent of a compound that is named as a salt.
Key:
[1] = target: ATP-binding cassette sub-family C member 2 (Homo sapiens, UniProt Q92887); test: Inhibition of human MRP2 overexpressed in Sf9 cell membrane vesicles assessed as uptake of [3H]-estradiol-17beta-D-glucuronide in presence of ATP and GSH measured after 20 mins by membrane vesicle transport assay
Bile salt export pump = Bile salt export pump (Homo sapiens, UniProt O95342); test: Inhibition of human BSEP overexpressed in Sf9 cell membrane vesicles assessed as uptake of [3H]-taurocholate in presence of ATP measured after 15 to 20 mins by membrane vesicle transport assay; assay type: ADME, cell-based
Bile salt export pump, sequence (O95342 whole entry): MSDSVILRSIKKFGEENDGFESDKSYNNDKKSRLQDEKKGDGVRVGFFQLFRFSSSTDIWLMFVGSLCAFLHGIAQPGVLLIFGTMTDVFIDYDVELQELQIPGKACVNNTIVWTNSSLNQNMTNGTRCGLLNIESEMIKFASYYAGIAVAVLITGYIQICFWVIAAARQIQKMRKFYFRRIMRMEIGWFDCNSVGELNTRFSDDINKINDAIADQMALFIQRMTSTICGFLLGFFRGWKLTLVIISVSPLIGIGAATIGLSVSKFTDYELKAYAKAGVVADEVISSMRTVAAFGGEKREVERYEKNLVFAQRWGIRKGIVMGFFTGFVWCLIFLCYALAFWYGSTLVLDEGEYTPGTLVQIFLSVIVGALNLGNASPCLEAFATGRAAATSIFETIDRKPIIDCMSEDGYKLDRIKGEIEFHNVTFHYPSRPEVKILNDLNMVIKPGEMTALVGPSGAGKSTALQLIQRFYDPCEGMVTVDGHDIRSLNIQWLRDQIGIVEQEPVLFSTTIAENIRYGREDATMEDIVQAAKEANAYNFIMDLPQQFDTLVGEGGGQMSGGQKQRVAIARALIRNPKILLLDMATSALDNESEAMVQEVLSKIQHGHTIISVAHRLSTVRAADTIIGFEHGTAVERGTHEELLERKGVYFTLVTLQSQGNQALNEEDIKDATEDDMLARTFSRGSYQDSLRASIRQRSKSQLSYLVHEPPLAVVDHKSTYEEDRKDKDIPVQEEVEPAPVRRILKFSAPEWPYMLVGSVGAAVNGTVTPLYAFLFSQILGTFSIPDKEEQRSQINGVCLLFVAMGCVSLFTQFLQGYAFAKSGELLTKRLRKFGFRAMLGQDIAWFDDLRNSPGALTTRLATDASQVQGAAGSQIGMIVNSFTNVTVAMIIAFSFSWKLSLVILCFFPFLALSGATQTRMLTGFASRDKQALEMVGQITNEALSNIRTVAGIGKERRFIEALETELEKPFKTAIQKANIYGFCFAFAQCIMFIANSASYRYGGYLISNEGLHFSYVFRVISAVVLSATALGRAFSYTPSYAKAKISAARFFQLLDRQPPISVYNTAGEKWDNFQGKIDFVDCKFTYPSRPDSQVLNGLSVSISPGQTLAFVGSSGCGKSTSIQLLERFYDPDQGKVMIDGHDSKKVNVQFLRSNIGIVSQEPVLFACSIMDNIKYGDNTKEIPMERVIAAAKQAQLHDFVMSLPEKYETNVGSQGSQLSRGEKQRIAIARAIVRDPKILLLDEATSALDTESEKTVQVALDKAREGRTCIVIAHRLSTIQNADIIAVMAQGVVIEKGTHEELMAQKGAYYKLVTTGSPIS

[2] = target: T1, ATP-binding cassette sub-family C member 4 (Homo sapiens, UniProt O15439); test: Inhibition of human MRP4 overexpressed in Sf9 cell membrane vesicles assessed as uptake of [3H]-estradiol-17beta-D-glucuronide in presence of ATP and GSH measured after 20 mins by membrane vesicle transport assay; assay type: ADME, cell-based
T1 sequence (O15439 whole entry): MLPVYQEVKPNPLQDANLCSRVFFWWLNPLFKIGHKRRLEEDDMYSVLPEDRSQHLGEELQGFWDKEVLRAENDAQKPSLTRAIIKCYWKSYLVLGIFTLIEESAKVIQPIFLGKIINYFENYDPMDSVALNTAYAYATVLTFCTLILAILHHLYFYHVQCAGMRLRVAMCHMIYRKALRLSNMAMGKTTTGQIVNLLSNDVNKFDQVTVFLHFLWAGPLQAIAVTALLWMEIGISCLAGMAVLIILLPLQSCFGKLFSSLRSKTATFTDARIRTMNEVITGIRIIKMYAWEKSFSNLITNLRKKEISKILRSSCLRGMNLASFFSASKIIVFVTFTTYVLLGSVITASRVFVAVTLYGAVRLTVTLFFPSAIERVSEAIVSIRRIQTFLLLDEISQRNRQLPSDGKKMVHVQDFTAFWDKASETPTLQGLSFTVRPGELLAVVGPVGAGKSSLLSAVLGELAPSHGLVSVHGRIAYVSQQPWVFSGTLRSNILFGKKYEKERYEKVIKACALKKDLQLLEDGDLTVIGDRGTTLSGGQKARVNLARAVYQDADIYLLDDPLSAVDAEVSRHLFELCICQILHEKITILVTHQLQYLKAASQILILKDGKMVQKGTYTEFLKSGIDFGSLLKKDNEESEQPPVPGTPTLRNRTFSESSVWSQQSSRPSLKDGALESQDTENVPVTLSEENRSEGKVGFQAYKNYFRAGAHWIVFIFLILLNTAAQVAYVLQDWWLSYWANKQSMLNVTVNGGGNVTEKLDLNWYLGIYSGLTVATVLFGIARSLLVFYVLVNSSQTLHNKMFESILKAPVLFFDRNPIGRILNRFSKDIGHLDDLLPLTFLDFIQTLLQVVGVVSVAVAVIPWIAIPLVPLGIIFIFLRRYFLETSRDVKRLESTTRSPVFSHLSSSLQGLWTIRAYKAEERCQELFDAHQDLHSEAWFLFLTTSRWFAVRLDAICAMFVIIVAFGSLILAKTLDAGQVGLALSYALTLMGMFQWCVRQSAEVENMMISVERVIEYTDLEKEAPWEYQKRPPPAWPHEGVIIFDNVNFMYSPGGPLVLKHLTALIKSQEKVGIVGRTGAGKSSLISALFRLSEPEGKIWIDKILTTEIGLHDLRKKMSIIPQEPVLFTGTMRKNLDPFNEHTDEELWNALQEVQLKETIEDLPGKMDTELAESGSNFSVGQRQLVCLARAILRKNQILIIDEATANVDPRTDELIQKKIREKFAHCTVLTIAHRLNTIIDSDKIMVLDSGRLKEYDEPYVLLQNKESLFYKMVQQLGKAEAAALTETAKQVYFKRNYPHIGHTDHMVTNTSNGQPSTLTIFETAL

[3] = target: ATP-binding cassette sub-family C member 3 (Homo sapiens, UniProt O15438); test: Inhibition of human MRP3 overexpressed in Sf9 insect cell membrane vesicles assessed as uptake of [3H]-estradiol-17beta-D-glucuronide in presence of ATP and GSH measured after 10 mins by membrane vesicle transport assay; assay type: ADME, cell-based
ATP-binding cassette sub-family C member 3, sequence (O15438 whole entry): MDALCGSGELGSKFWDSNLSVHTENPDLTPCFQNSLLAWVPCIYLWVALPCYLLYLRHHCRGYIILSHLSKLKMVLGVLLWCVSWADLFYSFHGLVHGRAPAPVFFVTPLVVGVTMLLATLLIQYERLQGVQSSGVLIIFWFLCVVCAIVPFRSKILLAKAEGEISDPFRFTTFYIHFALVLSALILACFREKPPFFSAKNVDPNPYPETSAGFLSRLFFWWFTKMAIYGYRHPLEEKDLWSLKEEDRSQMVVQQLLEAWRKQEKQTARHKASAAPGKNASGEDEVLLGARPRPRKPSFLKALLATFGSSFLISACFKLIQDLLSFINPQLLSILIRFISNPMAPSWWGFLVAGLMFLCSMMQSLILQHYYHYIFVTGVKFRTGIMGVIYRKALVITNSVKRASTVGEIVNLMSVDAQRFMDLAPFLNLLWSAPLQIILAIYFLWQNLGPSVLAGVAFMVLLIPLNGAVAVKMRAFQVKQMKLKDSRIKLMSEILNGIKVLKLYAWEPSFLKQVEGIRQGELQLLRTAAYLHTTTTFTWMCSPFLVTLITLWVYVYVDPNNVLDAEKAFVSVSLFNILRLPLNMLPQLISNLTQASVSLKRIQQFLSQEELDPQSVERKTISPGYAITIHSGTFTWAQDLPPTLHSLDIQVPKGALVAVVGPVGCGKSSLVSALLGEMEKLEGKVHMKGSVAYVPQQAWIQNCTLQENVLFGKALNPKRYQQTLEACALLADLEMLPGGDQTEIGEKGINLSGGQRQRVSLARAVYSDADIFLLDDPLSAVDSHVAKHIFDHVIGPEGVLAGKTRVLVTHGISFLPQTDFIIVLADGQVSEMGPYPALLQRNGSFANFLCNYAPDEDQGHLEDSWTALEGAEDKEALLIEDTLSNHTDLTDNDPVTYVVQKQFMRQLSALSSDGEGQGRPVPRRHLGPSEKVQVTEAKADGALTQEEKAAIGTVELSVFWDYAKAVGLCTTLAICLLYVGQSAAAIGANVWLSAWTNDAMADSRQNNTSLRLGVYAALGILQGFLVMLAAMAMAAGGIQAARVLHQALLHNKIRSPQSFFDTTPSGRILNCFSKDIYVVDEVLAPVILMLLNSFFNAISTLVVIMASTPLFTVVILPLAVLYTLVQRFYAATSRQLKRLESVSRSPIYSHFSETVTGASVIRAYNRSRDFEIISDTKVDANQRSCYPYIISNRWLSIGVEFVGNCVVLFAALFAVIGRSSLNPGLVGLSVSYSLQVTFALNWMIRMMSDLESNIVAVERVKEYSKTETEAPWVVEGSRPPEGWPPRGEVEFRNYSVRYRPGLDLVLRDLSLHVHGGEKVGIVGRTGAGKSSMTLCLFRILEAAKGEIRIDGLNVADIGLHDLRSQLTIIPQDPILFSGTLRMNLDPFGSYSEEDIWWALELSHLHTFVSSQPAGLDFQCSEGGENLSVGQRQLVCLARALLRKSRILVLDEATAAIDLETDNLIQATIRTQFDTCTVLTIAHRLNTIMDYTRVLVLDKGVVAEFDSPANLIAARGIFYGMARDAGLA

ATP-binding cassette sub-family C member 2, sequence (Q92887 whole entry): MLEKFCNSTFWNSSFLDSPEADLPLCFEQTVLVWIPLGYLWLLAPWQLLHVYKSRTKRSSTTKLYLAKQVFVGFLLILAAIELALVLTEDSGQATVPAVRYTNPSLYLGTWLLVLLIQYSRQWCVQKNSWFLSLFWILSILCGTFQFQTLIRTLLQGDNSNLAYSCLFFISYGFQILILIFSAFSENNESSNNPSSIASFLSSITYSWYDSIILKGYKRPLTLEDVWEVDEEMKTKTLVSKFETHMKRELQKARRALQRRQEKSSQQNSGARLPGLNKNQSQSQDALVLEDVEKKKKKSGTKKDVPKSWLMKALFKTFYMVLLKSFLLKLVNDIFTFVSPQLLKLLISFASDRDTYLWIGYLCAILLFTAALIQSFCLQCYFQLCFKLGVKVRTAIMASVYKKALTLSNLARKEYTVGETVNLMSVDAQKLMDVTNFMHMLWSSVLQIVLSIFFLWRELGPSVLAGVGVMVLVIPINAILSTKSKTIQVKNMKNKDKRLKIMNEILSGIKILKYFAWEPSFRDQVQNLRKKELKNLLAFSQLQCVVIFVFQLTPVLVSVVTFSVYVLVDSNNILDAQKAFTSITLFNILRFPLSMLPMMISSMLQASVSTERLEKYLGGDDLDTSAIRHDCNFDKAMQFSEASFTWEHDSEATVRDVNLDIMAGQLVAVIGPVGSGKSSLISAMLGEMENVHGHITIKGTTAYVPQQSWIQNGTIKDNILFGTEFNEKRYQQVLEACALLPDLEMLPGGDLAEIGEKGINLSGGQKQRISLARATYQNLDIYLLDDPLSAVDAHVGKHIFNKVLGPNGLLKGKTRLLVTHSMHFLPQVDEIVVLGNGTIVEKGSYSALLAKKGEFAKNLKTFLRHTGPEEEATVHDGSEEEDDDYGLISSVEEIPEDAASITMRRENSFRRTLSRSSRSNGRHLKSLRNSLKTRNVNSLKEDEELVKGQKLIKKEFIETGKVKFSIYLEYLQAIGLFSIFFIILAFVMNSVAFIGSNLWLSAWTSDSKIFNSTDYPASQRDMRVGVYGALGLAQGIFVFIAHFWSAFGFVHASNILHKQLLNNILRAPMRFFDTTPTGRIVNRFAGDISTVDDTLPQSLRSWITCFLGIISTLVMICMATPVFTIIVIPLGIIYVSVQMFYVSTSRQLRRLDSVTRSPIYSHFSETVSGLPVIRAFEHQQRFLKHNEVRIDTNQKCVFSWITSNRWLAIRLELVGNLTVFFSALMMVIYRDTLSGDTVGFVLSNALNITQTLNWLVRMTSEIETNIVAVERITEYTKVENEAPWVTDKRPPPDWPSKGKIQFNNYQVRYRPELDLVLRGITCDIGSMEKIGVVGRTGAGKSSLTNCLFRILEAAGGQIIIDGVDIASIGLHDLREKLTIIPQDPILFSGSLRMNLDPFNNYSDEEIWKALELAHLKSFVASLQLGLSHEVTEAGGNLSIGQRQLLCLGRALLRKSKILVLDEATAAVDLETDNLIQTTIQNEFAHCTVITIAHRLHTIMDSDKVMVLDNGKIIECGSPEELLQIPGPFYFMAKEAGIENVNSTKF

Row | Structure (SMILES) | IC50 [1] [µM] | IC50 (Bile salt export pump) [µM] | IC50 [2] [µM] | IC50 [3] [µM]
1 | NC(=O)c1cnccn1 [PYRAZINAMIDE] | > 133 | > 133 | > 133 | > 133
2 | Nc1nc(O)c2ncn(COC(CO)CO)c2n1 [GANCICLOVIR] | > 133 | > 133 | > 133 | > 133
3 | CC1(C)O[C@@H]2C[C@H]3[C@@H]4C[C@H](F)C5=CC(=O)C=C[C@]5(C)[C@H]4[C@@H](O)C[C@]3(C)[C@]2(C(=O)CO)O1 [FLUNISOLIDE] | > 133 | > 133 | > 133 | > 133
4 | CCOC(=O)/C=C(C)/C=C/C=C(C)/C=C/c1c(C)cc(OC)c(C)c1C [ETRETINATE] | > 133 | > 133 | > 133 | > 133
5 | Nc1nc(N)c2nc(-c3ccccc3)c(N)nc2n1 | > 133 | > 133 | > 133 | > 133
6 | Oc1ccc(C2CNCCc3c2cc(O)c(O)c3Cl)cc1 (stereo unspecified) [FENOLDOPAM MESYLATE] | > 133 | > 133 | > 133 | > 133
7 | CO[C@H]1O[C@@H]2O[C@@]3(C)CC[C@H]4[C@H](C)CC[C@@H]([C@H]1C)[C@@]24OO3 | > 133 | > 133 | > 133 | > 133
8 | O=C(NCCNCC(O)COc1ccc(O)cc1)N1CCOCC1 (stereo unspecified) [XAMOTEROL] | > 133 | > 133 | > 133 | > 133
9 | Nc1ccn([C@H]2CC[C@@H](CO)O2)c(=O)n1 [ZALCITABINE] | > 133 | > 133 | > 133 | > 133
10 | CCCSc1ccc2nc(NC(=O)OC)[nH]c2c1 [ALBENDAZOLE] | > 133 | > 133 | > 133 | > 133
11 | Nc1nc2ccc(OC(F)(F)F)cc2s1 [RILUZOLE] | > 133 | > 133 | > 133 | > 133
12 | NC(=O)CN1CCCC1=O | > 133 | > 133 | > 133 | > 133
13 | CO[C@H]1/C=C/O[C@@]2(C)Oc3c(C)c(O)c4c(O)c(c5c(nc6cc(C)ccn65)c4c3C2=O)NC(=O)/C(C)=C\C=C\[C@H](C)[C@H](O)[C@@H](C)[C@@H](O)[C@@H](C)[C@H](OC(C)=O)[C@@H]1C [RIFAXIMIN] | 15.4 | 42 | 30.2 | 65
14 | CC1=NS(=O)(=O)c2cc(Cl)ccc2N1 [DIAZOXIDE] | > 133 | > 133 | > 133 | > 133
15 | Nc1cc(-c2ccncc2)c[nH]c1=O [INAMRINONE] | > 133 | > 133 | > 133 | > 133
16 | CC(C)OC(=O)CCC/C=C\C[C@@H]1[C@@H](/C=C/[C@@H](O)COc2cccc(C(F)(F)F)c2)[C@H](O)C[C@@H]1O [TRAVOPROST] | > 133 | 43.9 | 74 | > 133
17 | Cc1cccc(C)c1OCC(C)N (stereo unspecified) [MEXILETINE] | > 133 | > 133 | > 133 | > 133
18 | O=C(O)CCCc1ccc(N(CCCl)CCCl)cc1 [CHLORAMBUCIL] | > 133 | > 133 | > 133 | > 133
19 | O=NN(CCCl)C(=O)NC1CCCCC1 [LOMUSTINE] | > 133 | > 133 | > 133 | > 133
20 | O=C(O)P(=O)(O)O [FOSCARNET SODIUM] | > 133 | > 133 | > 133 | > 133

Row | Structure (SMILES) | IC50 [1] [µM] | IC50 (Bile salt export pump) [µM] | IC50 [2] [µM] | IC50 [3] [µM]
21 | CN1C(C(=O)Nc2ccccn2)=C(O)c2sccc2S1(=O)=O [TENOXICAM] | > 133 | > 133 | > 133 | > 133
22 | Clc1ccc(COC(Cn2ccnc2)c2ccc(Cl)cc2Cl)c(Cl)c1 (stereo unspecified) [MICONAZOLE NITRATE] | > 133 | 114 | > 133 | > 133
23 | CCC(=O)O[C@@H]1CC(=O)O[C@H](C)C/C=C/C=C/[C@H](O)[C@H](C)C[C@H](CC=O)[C@H](O[C@@H]2O[C@H](C)[C@@H](O[C@H]3C[C@@](C)(O)[C@@H](OC(=O)CC)[C@H](C)O3)[C@H](N(C)C)[C@H]2O)[C@H]1OC [MIDECAMYCIN] | > 133 | 14.3 | > 133 | > 133
24 | Clc1cccc(N2CCNCC2)c1 [CHLOROPHENYLPIPERAZINE] | > 133 | > 133 | > 133 | > 133
25 | O=C1Cc2cc(CCN3CCN(c4nsc5ccccc45)CC3)c(Cl)cc2N1 [ZIPRASIDONE MESYLATE] | > 133 | > 133 | > 133 | > 133
26 | Nc1nc(Cl)nc2c1ncn2[C@H]1C[C@H](O)[C@@H](CO)O1 [CLADRIBINE] | > 133 | > 133 | > 133 | > 133
27 | Nc1ncn([C@H]2C[C@H](O)[C@@H](CO)O2)c(=O)n1 [DECITABINE] | > 133 | > 133 | > 133 | > 133
28 | C[C@H]1O[C@@H](O[C@H]2[C@@H](O)C[C@H](O[C@H]3[C@@H](O)C[C@H](O[C@H]4CC[C@@]5(C)[C@H](CC[C@@H]6[C@@H]5CC[C@]5(C)[C@@H](C7=CC(=O)OC7)CC[C@]65O)C4)O[C@@H]3C)O[C@@H]2C)C[C@H](O)[C@@H]1O [DIGITOXIN] | > 133 | 31 | > 133 | > 133
29 | CCCCC[C@H](O)/C=C/[C@@H]1[C@@H](C/C=C\CCCC(=O)O)[C@@H](O)C[C@H]1O [DINOPROST TROMETHAMINE] | […] | […] | 7.1 | […]
30 | O=c1[nH]c2ccccc2n1CCCN1CCC(n2c(=O)[nH]c3cc(Cl)ccc32)CC1 [DOMPERIDONE] | > 133 | > 133 | > 133 | > 133
31 | COC(=O)[C@@H]1CC2=CC(=O)CC[C@]2(C)[C@@]23O[C@@H]2C[C@@]2(C)[C@@H](CC[C@@]24CCC(=O)O4)[C@H]13 [EPLERENONE] | > 133 | > 133 | > 133 | > 133
32 | CCN(CC)CCNC(=O)c1cc(S(C)(=O)=O)ccc1OC [TIAPRIDE] | > 133 | > 133 | > 133 | > 133
33 | CC(=O)SCC(Cc1ccccc1)C(=O)NCC(=O)OCc1ccccc1 (stereo unspecified) [RACECADOTRIL] | > 133 | 20.3 | > 133 | 99
34 | CNCC[C@@H](Oc1ccccc1C)c1ccccc1 [ATOMOXETINE HYDROCHLORIDE] | > 133 | > 133 | > 133 | > 133
35 | CN1CCN(C(=O)O[C@H]2c3nccnc3C(=O)N2c2ccc(Cl)cn2)CC1 [ESZOPICLONE] | > 133 | > 133 | > 133 | > 133
36 | Clc1ccc2c(c1)C(N1CCNCC1)=Nc1ccccc1O2 [AMOXAPINE] | > 133 | > 133 | > 133 | > 133
37 | Nc1c2c(nc3ccccc13)CCCC2 [TACRINE] | > 133 | > 133 | 23.7 | > 133
38 | COc1ccccc1OCCNCC(O)COc1cccc2[nH]c3ccccc3c12 (stereo unspecified) [CARVEDILOL] | > 133 | > 133 | > 133 | > 133
39 | CO/N=C(\C(=O)N[C@@H]1C(=O)N2C(C(=O)O)=C(CSc3nc(=O)c(=O)[nH]n3C)CS[C@H]12)c1csc(N)n1 | > 133 | > 133 | 35.6 | > 133

Source: ChEMBL document CHEMBL4028801, “A multifactorial approach to hepatobiliary transporter assessment enables improved therapeutic compound development” (Toxicol Sci, 2013)
